Reference: patent publication US8133847B2, “Pyrido[2,3-B]pyrazine derivatives useful as herbicidal compounds” (Syngenta Limited, priority 2006, dated 2012)

Experiments:
Experiment in all cases: Example B1 herbicidal action, post-emergence, 96-cell seed trays, climatic chamber
Format in all cases: in vivo
[1] = tested on: Amaranthus retroflexus (AMARE); details: Application post-emergence, 1000 mg/l spray equivalent to 1000 g/ha, evaluated after 9 days
Experimental: (§1) Seeds of a variety of test species were sown in sterilised standard soil in seed trays each having 96 cells. After cultivation for 8 to 9 days cultivation (post-emergence) under controlled conditions in a climatic chamber (cultivation at 23/17° C., day/night; 13 hours light; 50-60% humidity), the plants were treated with an aqueous spray solution of 1000 mg/l of the active ingredient dissolved in 10% DMSO (dimethyl sulfoxide, CAS RN 67-68-5) as a solvent, equivalent to 1000 g/ha. The plants were grown in the climatic chamber after application at (24/19° C., day/night; 13 hours light; 50-60% humidity) and watered twice daily. After 9 days until the test was evaluated (100=total damage to plant, 0=no damage to plant)

[2] = tested on: Solanum nigrum (SOLNI); details: Application post-emergence, 1000 mg/l spray equivalent to 1000 g/ha, evaluated after 9 days (100=total damage to plant, 0=no damage to plant)
Experimental: as §1

[3] = tested on: Stellaria media (STEME); details: Application post-emergence, 1000 mg/l spray equivalent to 1000 g/ha, evaluated after 9 days (100=total damage to plant, 0=no damage to plant)
Experimental: as §1

[4] = tested on: Nasturtium officinale (NAAOF); set-up: scale not given here; details: Application post-emergence, 1000 mg/l spray equivalent to 1000 g/ha, evaluated after 9 days (100=total damage to plant, 0=no damage to plant)
Experimental: as §1

Structure (SMILES) | damage to plant, Amaranthus retroflexus (AMARE) [1] | damage to plant, Solanum nigrum (SOLNI) [2] | damage to plant, Stellaria media (STEME) [3] | damage to plant, Nasturtium officinale (NAAOF) [4]
C=CCCn1c(=O)c(-c2ccccc2OC(F)(F)F)c(OC(C)=O)c2nccnc21 [Compound C22] | 1 | 2 | 5 | 8
COc1c(Cl)cc(Cl)cc1-c1c(O)c2nccnc2[nH]c1=O [Compound A9] | 7 | 4 | 8 | 3
Cn1c(=O)c(-c2c(F)ccc(F)c2Cl)c(OC(=O)C(C)(C)C)c2nccnc21 [Compound C105] | 5 | 5 | 8 | 6
Cc1ccc(F)c(-c2c(OC(=O)C(C)(C)C)c3nccnc3n(C)c2=O)c1Cl [Compound C128] | 3 | 7 | 6 | 6
C=CCn1c(=O)c(-c2ccccc2OC(F)(F)F)c(OC(=O)C(C)(C)C)c2nccnc21 [Compound C25] | 0 | 0 | 2 | 0
O=c1[nH]c2ncc(Br)nc2c(O)c1-c1c(Cl)cccc1Cl [Compound A26] | 0 | 0 | 2 | 0
CCC(=O)Oc1c(-c2c(Cl)cccc2Cl)c(=O)n(CC)c2nccnc12 [Compound C31] | 8 | 4 | 8 | 8
CCn1c(=O)c(-c2c(Cl)ccc(C)c2F)c(OC(=O)C(C)C)c2nccnc21 [Compound C115] | 4 | 4 | 8 | 7
CCn1c(=O)c(-c2c(F)ccc(F)c2F)c(OC(=O)C(C)(C)C)c2nccnc21 [Compound C59] | 6 | 0 | 7 | 7
CC(=O)Oc1c(-c2c(C)cc(C)cc2C)c(=O)[nH]c2nccnc12 [Compound B33] | 5 | 0 | 3 | 5
CC#CCOC(=O)Oc1c(-c2c(Cl)cccc2Cl)c(=O)n(C)c2nccnc12 [Compound C178] | 4 | 2 | 7 | 6
Cn1c(=O)c(-c2ccc3ccccc3c2)c(OC(=O)C(C)(C)C)c2nccnc21 [Compound C52] | 0 | 0 | 3 | 3
CC(C)(C)C(=O)Oc1c(-c2c(Cl)cc(C(F)(F)F)cc2Cl)c(=O)[nH]c2nccnc12 [Compound B41] | 2 | 2 | 1 | 2
O=C(Oc1c(-c2c(F)ccc(F)c2Cl)c(=O)[nH]c2nccnc12)c1ccc([N+](=O)[O-])cc1 [Compound B40] | 6 | 0 | 1 | 0
CCn1c(=O)c(-c2ccc(Cl)cc2Cl)c(OC(C)=O)c2nccnc21 [Compound C6] | 8 | 5 | 9 | 8
Cc1ccc(F)c(-c2c(OC(=O)C(C)C)c3nccnc3n(C)c2=O)c1Cl [Compound C126] | 6 | 7 | 7 | 6
CCn1c(=O)c(-c2c(F)ccc(F)c2Cl)c(OC(=O)CC(C)(C)C)c2nccnc21 [Compound C112] | 6 | 7 | 7 | 5
